Experimental data as given in patent US9234006B2, “Compounds” (Novacta Biosystems Limited, priority 2011, dated 2016).

Columns and labels:
[1] = tested on: Klebsiella pneumoniae ATCC10031; type: in vivo; details: neutropenic mice, thigh, K. pneumoniae ATCC10031, total daily dosage 10 mg/Kg; Table 5B
Experimental: Groups of 5 female specific-pathogen-free CD-1 mice weighing 22±2 g were used. The animals were made neutropenic by intraperitoneal administration of cyclophosphamide on days −4 (150 mg/kg) and −1 (100 mg/kg). […] Examples 2, 4, 5, 6, 7, 8, 10, 11 and polymyxin B were prepared in Normal Saline at 2 mg/mL and the solution was adjusted to pH 6-7 by addition of 0.1M H2SO4 or 4.2% NaHCO3 as required. Twenty-four hours after infection, the mice were euthanized humanely. The muscle of the right thigh of each animal was harvested, homogenized, serially diluted and plated on Brain Heart Infusion agar+0.5% charcoal (w/v) for CFU determination. Decrease of the total CFU of right thigh as compared to control counts at 24 hrs post-infection was determined for each dose group. […] Using the same procedure as described above, the in vivo efficacy of three compounds of the invention (Examples 2,6, and 14) was evaluated in a mouse thigh infection model of Klebsiella pneumoniae ATCC10031, using Colistin (Polymyxin E) as comparator.

A. baumannii NCTC13423 = test: MIC susceptibility testing, broth microdilution in CaMHB; type: cell-based, Acinetobacter baumannii; details: Table 4A, different batches of cation-adjusted Muller-Hinton broth
In short: (§1)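 Each strain is grown from fresh agar colonies overnight in CaMHB (37° C, 250 rpm), subcultured to OD600 0.2-0.3 and diluted 100-fold into fresh medium for inoculation. MICs are determined in duplicate.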

A. baumannii ATCCBAA-747 = test: as above; type: cell-based, Acinetobacter baumannii; details: Table 4A, different batches of cation-adjusted Muller-Hinton broth
In short: as §1

A. baumannii NCTC7844 = test: as above; type: cell-based, Acinetobacter baumannii; details: Table 4A, different batches of cation-adjusted Muller-Hinton broth
In short: as §1

P. aeruginosa ATCC27853 = test: as above; type: cell-based, Pseudomonas aeruginosa; details: Table 4A, different batches of cation-adjusted Muller-Hinton broth
In short: as §1

P. aeruginosa ATCC10145 = test: as above; type: cell-based, Pseudomonas aeruginosa; details: Table 4A, different batches of cation-adjusted Muller-Hinton broth
In short: as §1

[2] = tested on: P. aeruginosa ATCCCRM-9027; test: as above; type: cell-based, Pseudomonas aeruginosa; details: P. aeruginosa AATCCRM 9027; Table 4A, different batches of cation-adjusted Muller-Hinton broth
In short: as §1

P. aeruginosa ATCC 9721 = test: as above; type: cell-based, Pseudomonas aeruginosa; details: P. aeruginosa ATCC9721; Table 4A, different batches of cation-adjusted Muller-Hinton broth
In short: as §1

[3] = tested on: K. pneumoniae clinical isolates and resistant strains; type: cell-based; details: K. pneumoniae
Experimental: (§2) The in vitro antibacterial activities of the compounds of examples 2 and 6 were evaluated against a panel of […] Gram-negative bacterial isolates alongside Colistin. The panel consisted of 100 clinical isolates of each of A. baumannii, E. coli, K. pneumoniae and P. aeruginosa. The panel represented the current epidemiology in Europe and the USA and included a number of relevant strains with defined resistant phenotypes to current clinically-used antibacterial agents. These resistant strains included 20 A. baumannii, 22 E. coli, 25 K. pneumoniae and 20 P. aeruginosa strains.
(§3) All compounds were tested up to a maximum concentration of 64 μg/mL with the exception of colistin, which was evaluated up to a maximum concentration of 16 μg/mL.

[4] = tested on: P. aeruginosa clinical isolates and resistant strains; type: cell-based; details: P. aeruginosa
Experimental: as §2, §3

[5] = tested on: A. baumannii clinical isolates and resistant strains; type: cell-based; details: A. baumannii
Experimental: as §2, §3

[6] = tested on: E. coli clinical isolates and resistant strains; type: cell-based; details: E. coli
Experimental: as §2, §3

K. pneumoniae ATCC 4352 = test: MIC susceptibility testing, broth microdilution in CaMHB; type: cell-based, Klebsiella pneumoniae; details: K. pneumoniae ATCC4352; Table 4A, different batches of cation-adjusted Muller-Hinton broth
In short: as §1

K. pneumoniae NCTC7427 = test: as above; type: cell-based, Klebsiella pneumoniae; details: Table 4A, different batches of cation-adjusted Muller-Hinton broth
In short: as §1

K. pneumoniae NCTC8172 = test: as above; type: cell-based, Klebsiella pneumoniae; details: Table 4A, different batches of cation-adjusted Muller-Hinton broth
In short: as §1

E. coli ATCC700928 = test: as above; type: cell-based, Escherichia coli; details: Table 4A, different batches of cation-adjusted Muller-Hinton broth
In short: as §1

E. coli ATCC25922 = test: as above; type: cell-based, Escherichia coli; details: Table 4A, different batches of cation-adjusted Muller-Hinton broth
In short: as §1

E. coli NCTC9001 = test: as above; type: cell-based, Escherichia coli; details: Table 4A, different batches of cation-adjusted Muller-Hinton broth
In short: as §1

E. coli NCTC12900 = test: as above; type: cell-based, Escherichia coli; details: Table 4A, different batches of cation-adjusted Muller-Hinton broth
In short: as §1

HK-2 cell line = details: 24 h incubation, resazurin reduction; Table 7A; footnote c: solubility issues noted at top concentration
Experimental: The renal cell toxicity of the compounds was assessed in an in vitro assay using the HK-2 cell line, an immortalized proximal tubule cell line derived from a normal human kidney. The endpoint to describe the toxicity of the compounds was the reduction of resazurin correlating with the metabolic activity of the cells.
Cells were cultured in 150 cm^2 flasks in 25 mL supplemented KSF (with 5 ng/mL EGF and 50 μg/mL BPE). Cells were maintained at 70% confluence with a maximum of 25 passages. Day 1: Media was removed and cells were washed with 10 ml DPBS. […] After 1 to 2 minutes incubation, 14 ml media was added to the flask to inactivate the trypsin. The cell suspension was transferred to a centrifuge tube and the cells pelleted at 1000 rpm for 6 minutes. The cell pellet was then resuspended in fresh media supplemented with EGF and BPE. […] 7500 cells were dispensed in each well in a volume of 160 μl and incubated at 37° C. for 24 h.
Day 2: Test compounds were prepared directly into the media. […] The microtiter plates were removed from the incubator and the media replaced with 100 μl of the dilutions of the compound solution. Every set of concentration was done in triplicate, and positive and negative controls were added to each plate. The plates were then incubated for 24 h at 37° C. with 5% CO2 in a humidified atmosphere.
Day 3: The reagent containing the resazurin (CellTiter-Blue, Promega) was diluted in PBS (1:4) and added at 20% (v/v) to each well. The plates were then incubated at 37° C. for 2 h before the fluorescent reduction product was detected.
Media only background values were subtracted before the data was analysed using GraphPad Prism. Compound concentration values were plotted as log values to enable a dose-response curve to be fitted and IC50 values determined (Table 7).
The renal cell toxicity of the additional example compounds was assessed in an in vitro assay using the HK-2 cell as described in the example above.

Substance: Colistin [reference compound]
- Mean log10 CFU reduction vs. control [1]: 2.60 log10 CFU
- MIC (A. baumannii NCTC13423): <0.06 micrograms/mL
- MIC (A. baumannii ATCCBAA-747): 0.25 micrograms/mL
- MIC (A. baumannii NCTC7844): 0.125 micrograms/mL
- MIC (P. aeruginosa ATCC27853): 0.5 micrograms/mL
- MIC (P. aeruginosa ATCC10145): 0.5 micrograms/mL
- MIC [2]: 0.5 micrograms/mL
- MIC (P. aeruginosa ATCC 9721): 0.5 micrograms/mL
- MIC50 Clinical isolates ([3]; clinical isolates): 2 µg/mL
- MIC90 Clinical isolates ([3]; clinical isolates): 4 µg/mL
- MIC Range Clinical isolates ([3]; clinical isolates): 1 to 16 µg/mL
- MIC50 Resistant strains ([3]; resistant strains): 2 µg/mL
- MIC90 Resistant strains ([3]; resistant strains): 8 µg/mL
- MIC50 Clinical isolates ([4]; clinical isolates): 2 µg/mL
- MIC90 Clinical isolates ([4]; clinical isolates): 4 µg/mL
- MIC Range Clinical isolates ([4]; clinical isolates): 0.25 to 4 µg/mL
- MIC50 Resistant strains ([4]; resistant strains): 2 µg/mL
- MIC90 Resistant strains ([4]; resistant strains): 2 µg/mL
- MIC Range Resistant strains ([4]; resistant strains): 0.5 to 2 µg/mL
- MIC50 Clinical isolates ([5]; clinical isolates): 2 µg/mL
- MIC90 Clinical isolates ([5]; clinical isolates): 2 µg/mL
- MIC Range Clinical isolates ([5]; clinical isolates): 0.5 to 4 µg/mL
- MIC50 Resistant strains ([5]; resistant strains): 2 µg/mL
- MIC90 Resistant strains ([5]; resistant strains): 2 µg/mL
- MIC Range Resistant strains ([5]; resistant strains): 1 to 4 µg/mL
- MIC50 Clinical isolates ([6]; clinical isolates): 2 µg/mL
- MIC90 Clinical isolates ([6]; clinical isolates): 2 µg/mL
- MIC Range Clinical isolates ([6]; clinical isolates): 0.5 to 4 µg/mL
- MIC50 Resistant strains ([6]; resistant strains): 1 µg/mL
- MIC90 Resistant strains ([6]; resistant strains): 1 µg/mL
- MIC Range Resistant strains ([6]; resistant strains): 0.25 to 2 µg/mL
- MIC (K. pneumoniae ATCC 4352): 0.125 micrograms/mL
- MIC (K. pneumoniae NCTC7427): 0.25 micrograms/mL
- MIC (K. pneumoniae NCTC8172): 0.5 micrograms/mL
- MIC (E. coli ATCC700928): 0.25 micrograms/mL
- MIC (E. coli ATCC25922): 1 micrograms/mL
- MIC (E. coli NCTC9001): 2 micrograms/mL
- MIC (E. coli NCTC12900): 0.5 micrograms/mL
- IC50 HK-2 cells (HK-2 cell line): 28^a μg/mL
